Data published in the supplement of paper PMC10307832.

Experiments:
Assay in all cases: relative viability (nuclei count vs DMSO), 5 days (fraction); higher = more cells survive
[1] = tested on: 201T
In short: (§1)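 Lung cancer cell lines were pin-tool dosed in 1536-well plates on the day after seeding, with either a lone drug or a fixed anchor-drug dose plus five library-drug doses (not always all listed) in √10 steps. Nuclei were counted on 4× images after 5 days. Relative viability is the ratio of treated-well to vehicle-well nuclei counts, with each value a median of duplicate plates.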

[2] = tested on: NCI-H2342
In short: as §1

[3] = tested on: H3255
In short: as §1

[4] = tested on: EKVX
In short: as §1

[5] = tested on: HCC-44
In short: as §1

[6] = tested on: EPLC-272H
In short: as §1

[7] = tested on: HCC-827
In short: as §1

[8] = tested on: NCI-H647
In short: as §1

[9] = tested on: BEN
In short: as §1

[10] = tested on: NCI-H1975
In short: as §1

[11] = tested on: NCI-H1666
In short: as §1

[12] = tested on: NCI-H1437
In short: as §1

[13] = tested on: NCI-H650
In short: as §1

[14] = tested on: LOU-NH91
In short: as §1

[15] = tested on: LU99A
In short: as §1

[16] = tested on: NCI-H2170
In short: as §1

[17] = tested on: NCI-H2085
In short: as §1

[18] = tested on: SW 1573
In short: as §1

[19] = tested on: COR-L 105
In short: as §1

[20] = tested on: LCLC-97TM1
In short: as §1

[21] = tested on: NCI-H2087
In short: as §1

[22] = tested on: PC-3 [JPC-3]
In short: as §1

## Cc1sc2c(c1C)C(c1ccc(Cl)cc1)=N[C@@H](CC(=O)OC(C)(C)C)c1nnc(C)n1-2 [JQ1] + O=C(CCCCCCC(=O)Nc1ccccc1)NO [Vorinostat] (partner 1 µM)
[1]; first compound 0.04 µM
  relative viability: 0.952
[1]; first compound 0.4 µM
  relative viability: 0.73
[1]; first compound 1.265 µM
  relative viability: 0.46
[1]; first compound 4 µM
  relative viability: 0.367
[2]; first compound 0.04 µM
  relative viability: 0.722
[2]; first compound 0.1265 µM
  relative viability: 0.592
[2]; first compound 0.4 µM
  relative viability: 0.87
[2]; first compound 1.265 µM
  relative viability: 0.73
[2]; first compound 4 µM
  relative viability: 0.714
[3]; first compound 0.04 µM
  relative viability: 0.896
[3]; first compound 0.4 µM
  relative viability: 1.01
[3]; first compound 1.265 µM
  relative viability: 0.526
[3]; first compound 4 µM
  relative viability: 0.428
[4]; first compound 0.04 µM
  relative viability: 0.789
[4]; first compound 0.4 µM
  relative viability: 0.739
[4]; first compound 1.265 µM
  relative viability: 0.466
[4]; first compound 4 µM
  relative viability: 0.496
[5]; first compound 0.04 µM
  relative viability: 1.12
[5]; first compound 0.1265 µM
  relative viability: 1.03
[5]; first compound 0.4 µM
  relative viability: 0.965
[5]; first compound 1.265 µM
  relative viability: 0.788
[5]; first compound 4 µM
  relative viability: 0.578
[6]; first compound 0.04 µM
  relative viability: 0.473
[6]; first compound 0.1265 µM
  relative viability: 0.391
[6]; first compound 0.4 µM
  relative viability: 0.274
[6]; first compound 1.265 µM
  relative viability: 0.175
[6]; first compound 4 µM
  relative viability: 0.206
[7]; first compound 0.04 µM
  relative viability: 0.95
[7]; first compound 0.1265 µM
  relative viability: 0.464
[7]; first compound 1.265 µM
  relative viability: 0.904
[8]; first compound 0.04 µM
  relative viability: 0.615
[8]; first compound 0.1265 µM
  relative viability: 0.373
[8]; first compound 0.4 µM
  relative viability: 0.406
[8]; first compound 1.265 µM
  relative viability: 0.0648
[8]; first compound 4 µM
  relative viability: 0.062
[9]; first compound 0.04 µM
  relative viability: 0.503
[9]; first compound 0.1265 µM
  relative viability: 0.545
[9]; first compound 0.4 µM
  relative viability: 0.494
[9]; first compound 1.265 µM
  relative viability: 0.456
[9]; first compound 4 µM
  relative viability: 0.351
[10]; first compound 0.04 µM
  relative viability: 0.729
[10]; first compound 0.1265 µM
  relative viability: 0.6
[10]; first compound 0.4 µM
  relative viability: 0.64
[10]; first compound 1.265 µM
  relative viability: 0.325
[10]; first compound 4 µM
  relative viability: 0.263
[11]; first compound 0.04 µM
  relative viability: 0.972
[11]; first compound 0.1265 µM
  relative viability: 0.944
[11]; first compound 0.4 µM
  relative viability: 0.988
[11]; first compound 1.265 µM
  relative viability: 0.823
[11]; first compound 4 µM
  relative viability: 0.788
[12]; first compound 0.04 µM
  relative viability: 0.816
[12]; first compound 0.1265 µM
  relative viability: 0.736
[12]; first compound 0.4 µM
  relative viability: 0.686
[12]; first compound 1.265 µM
  relative viability: 0.395
[12]; first compound 4 µM
  relative viability: 0.34
[13]; first compound 0.04 µM
  relative viability: 0.43
[13]; first compound 0.1265 µM
  relative viability: 0.295
[13]; first compound 0.4 µM
  relative viability: 0.425
[13]; first compound 1.265 µM
  relative viability: 0.242
[13]; first compound 4 µM
  relative viability: 0.192
[14]; first compound 0.04 µM
  relative viability: 0.912
[14]; first compound 0.1265 µM
  relative viability: 0.718
[14]; first compound 0.4 µM
  relative viability: 0.442
[14]; first compound 1.265 µM
  relative viability: 0.388
[14]; first compound 4 µM
  relative viability: 0.402
[15]; first compound 0.04 µM
  relative viability: 0.61
[15]; first compound 0.4 µM
  relative viability: 0.363
[15]; first compound 1.265 µM
  relative viability: 0.278
[15]; first compound 4 µM
  relative viability: 0.188
[16]; first compound 0.04 µM
  relative viability: 0.866
[16]; first compound 0.1265 µM
  relative viability: 0.609
[16]; first compound 0.4 µM
  relative viability: 0.513
[16]; first compound 1.265 µM
  relative viability: 0.472
[16]; first compound 4 µM
  relative viability: 0.243
[17]; first compound 0.04 µM
  relative viability: 0.769
[17]; first compound 0.1265 µM
  relative viability: 0.601
[17]; first compound 0.4 µM
  relative viability: 0.639
[17]; first compound 1.265 µM
  relative viability: 0.474
[17]; first compound 4 µM
  relative viability: 0.398
[18]; first compound 0.04 µM
  relative viability: 0.695
[18]; first compound 0.1265 µM
  relative viability: 0.365
[18]; first compound 0.4 µM
  relative viability: 0.338
[18]; first compound 1.265 µM
  relative viability: 0.231
[18]; first compound 4 µM
  relative viability: 0.238
[19]; first compound 0.04 µM
  relative viability: 0.743
[19]; first compound 0.1265 µM
  relative viability: 0.773
[19]; first compound 0.4 µM
  relative viability: 0.621
[19]; first compound 1.265 µM
  relative viability: 0.338
[19]; first compound 4 µM
  relative viability: 0.338
[20]; first compound 0.04 µM
  relative viability: 0.603
[20]; first compound 0.1265 µM
  relative viability: 0.532
[20]; first compound 0.4 µM
  relative viability: 0.25
[20]; first compound 1.265 µM
  relative viability: 0.121
[20]; first compound 4 µM
  relative viability: 0.0762
[21]; first compound 0.04 µM
  relative viability: 0.63
[21]; first compound 0.1265 µM
  relative viability: 0.38
[21]; first compound 0.4 µM
  relative viability: 0.668
[21]; first compound 1.265 µM
  relative viability: 0.316
[21]; first compound 4 µM
  relative viability: 0.127
[22]; first compound 0.04 µM
  relative viability: 0.816
[22]; first compound 0.1265 µM
  relative viability: 0.716
[22]; first compound 0.4 µM
  relative viability: 0.67
[22]; first compound 1.265 µM
  relative viability: 0.537
[22]; first compound 4 µM
  relative viability: 0.377
